58 molecules from ChEMBL document CHEMBL1201862, “PubChem BioAssay data set” (2004) can be followed below.

“And” between values parts separate entries of the source, which are not always exact repeats. Equal entries are not always repeated.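 The compound was tested at five concentrations on cells cultured in 96-well plates, with a 48-hour exposure period. GI50: concentration for 50% inhibition of growth.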 The source made the active and inactive calls. Rule as the data show it: active = GI50 up to about 1.1 µM and inactive = higher. A value given as a limit tells only on which side of the number the result lay.

Some test systems named below: PC-3; T47D; DMS-114; HOP-18; SNB-78; LXFL 529; M19-MEL; XF498.
Holding throughout (assay): growth of human tumour cells (NCI), 48 h

Turning to `CN(C)CCNCCN`, the GI50 in the assay with PC-3 and with T47D was > 100 µM (inactive) in each case.

`Cn1c(=S)c2nc(SCCCc3ccccc3)[nH]c2n(C)c1=O`: the GI50 in the assay on PC-3 was 36.8 µM (inactive); in the assay on T47D, 14.6 µM (inactive).

Take `O=C1Nc2ccccc2/C1=N/Nc1ccccc1Cl`: the GI50 was > 100 µM (inactive) with PC-3 and 12.5 µM (inactive) with T47D.

For `Cc1cc(C)c(O)c(Cc2cccc(Cc3cc(C)cc(C)c3O)c2O)c1`, the GI50 in the assay on PC-3 and in the assay with T47D was > 100 µM (inactive) in each case.

Consider `Cc1ccc(-c2cs/c(=N\c3ccccc3)n2NC(=O)c2ccncc2)cc1`, for which the GI50 was 27.4 µM (inactive) in the assay with PC-3 and 24.5 µM (inactive) in the assay on T47D.

Take `CCOc1ccccc1-c1nc2c(s1)C(=O)c1ccccc1C2=O`: the GI50 in the assay with PC-3 was 12 µM (inactive); in the assay with T47D, 16.9 µM (inactive).

For the molecule `OCc1cc2c([nH]c3ccccc32)c(C(O)CO)n1` (configuration not stated), the GI50 in the assay on PC-3 and in the assay on T47D was > 100 µM (inactive) in each case.

Turning to `O=C(/C=C1\Nc2ccc([N+](=O)[O-])cc2N=C1NC12CC3CC(CC(C3)C1)C2)c1ccccc1`, the GI50 with PC-3 and in the assay on T47D was > 10 µM (inactive) throughout.

On to `CC(=O)c1cccc(C)c1C(=O)O`, for which the GI50 is > 100 µM (inactive) in the assay on DMS-114; > 100 µM (inactive) in the assay on HOP-18; 95.5 µM (inactive) with SNB-78; > 100 µM (inactive) in the assay on LXFL 529; > 100 µM (inactive) in the assay with M19-MEL.

As for `CSc1nc2c(c(=O)[nH]1)N=C(c1ccccc1)CC(c1ccccc1)N2` (configuration not stated), in the assay with PC-3, the GI50 is 55.1 µM (inactive).

With `CC(C)/C(Cl)=N\OC(=O)Nc1cccc(Cl)c1`, the GI50 was 15.9 µM (inactive) with PC-3 and 26.8 µM (inactive) with T47D.

For the molecule `CCOC(=O)c1cc2c3ccn(Cc4ccccc4)c3c3c(C)noc3c2[nH]1`, the GI50 with PC-3 and in the assay with T47D was > 100 µM (inactive) each time.

Take `O=c1[nH]nc(Cc2ccccc2)n1O`: in the assay on T47D, the GI50 is > 100 µM (inactive).

As to `COc1cccc2c1-c1c(OC)cccc1SS2`, the GI50 with PC-3 is 32.5 µM (inactive).

With `C=CCOc1ccc(C(=N/NC(=O)c2ccccc2)/N=N/c2ccc(C)cc2)cc1OC`, the GI50 with PC-3 is 25.7 µM (inactive); in the assay on T47D, 14.2 µM (inactive).

As to `CCC1=C(CC)C1(C#N)[N+](=O)[O-]`, the GI50 with DMS-114, in the assay with SNB-78, with LXFL 529 and in the assay on M19-MEL was > 100 µM (inactive) in each case.

`O=C(/C=C\c1ccccc1-c1ccccc1)c1ccccc1`: the GI50 in the assay on T47D was 15.8 µM (inactive).

`O=C(Nc1ccc(Cl)cc1)c1cc(S(=O)(=O)Nc2n[nH]c(=O)[nH]2)c(SSc2cc(Cl)c(C(=O)Nc3ccc(Cl)cc3)cc2S(=O)(=O)Nc2n[nH]c(=O)[nH]2)cc1Cl`: the GI50 in the assay on PC-3 is > 100 µM (inactive).

For the molecule `COc1cc2c(cc1O)C1Cc3ccc(OC)c(O)c3C(C2)N1C` (configuration not stated), the GI50 with PC-3 is 90.8 µM (inactive); in the assay with T47D, > 100 µM (inactive).

In the case of `CC(C)c1cccc(C(C)C)c1NC(=O)CCC(=O)NN`, the GI50 in the assay with DMS-114, in the assay on HOP-18, in the assay with SNB-78, with LXFL 529 and in the assay on M19-MEL was > 100 µM (inactive) throughout.

On to `O=C(CC/C(CC(=O)c1ccc(Cl)cc1)=N\O)Nc1cccc(Cl)c1`, for which the GI50 in the assay on DMS-114, with XF498, in the assay with SNB-78, with LXFL 529 and with M19-MEL was > 100 µM (inactive) in each case.

In the case of `CCOP(=O)(OCC)OC1c2[nH]ccc2-c2cc(C(=O)OC)[nH]c2C1OC` (configuration not stated), the GI50 is 66.8 µM (inactive) with PC-3 and 51.8 µM (inactive) in the assay on T47D.

`Cc1nc2cc(/N=N/c3c(O)ccc4ccccc34)ccc2[nH]1`: the GI50 in the assay on PC-3 was 21 µM (inactive); in the assay with DMS-114 it was 25.8 µM (inactive); in the assay on T47D, 21 µM (inactive); in the assay with SNB-78, 83 µM (inactive); in the assay with LXFL 529 it was 19.9 µM (inactive); with M19-MEL, 23.2 µM (inactive).

Regarding `c1csc(-c2sc(-c3ccsc3)cc2Cc2ccsc2)c1`, the GI50 with PC-3 and in the assay with T47D was > 10 µM (inactive) in each case.

In the case of `CC(=O)O[C@H]1[C@@H](OC2CCCC2(c2ccccc2)c2ccccc2)O[N+]([O-])=C[C@@H]1c1ccccc1` (some centres not stated), the GI50 is 8.24 µM (inactive) in the assay on PC-3 and 7.52 µM (inactive) in the assay on T47D.

With `O=C1/C(=C/c2ccco2)NC(=S)N1CN1CCCCC1`, the GI50 in the assay on PC-3 was > 100 µM (inactive).

As for `Cn1c(=O)c2c(ncn2Cc2ccc(O)c([N+](=O)[O-])c2)n(C)c1=O`, the GI50 in the assay on PC-3 and in the assay with T47D was > 100 µM (inactive) in each case.

Regarding `COc1ccc(/C=N/N=C(\N)NO)c(OC)c1OC`, the GI50 in the assay on PC-3 was 36.3 µM (inactive); in the assay on T47D, 28.1 µM (inactive).

For the molecule `O=CNCCCN1CCN(CCCNC=O)CC1`, the GI50 in the assay with PC-3 and in the assay with T47D was > 100 µM (inactive) in each case.

Take `CC1CC/C(=C\c2ccc(F)cc2)C2=C1C(c1ccc(F)cc1)NC(=S)N2` (configuration not stated): the values for the GI50 with PC-3 and with T47D were 30 µM (inactive) and 12.9 µM (inactive), respectively.

For the molecule `Cc1cc2nc(C=C(C(F)(F)F)C(F)(F)F)sc2cc1C`, the figures for the GI50 in the assay with PC-3 and with T47D were 1.65 µM (inactive) and 0.142 µM (active), respectively.

On to `O=C(NN=C1CCN(Cc2ccccc2)CC1)C(O)(c1ccccc1)c1ccccc1`, for which the GI50 in the assay on T47D is > 100 µM (inactive).

On to `CCC1(c2ccc(OC)c(OC)c2)CCN2C(=O)C(O)CC21` (configuration not stated), for which the GI50 in the assay on PC-3 and with T47D was > 100 µM (inactive) each time.

Regarding `CN(/N=C/c1ccccc1C(=O)O)C1=NCCCCN1`, the GI50 with PC-3 and with T47D was > 100 µM (inactive) in each case.

For `CSC(=S)Nc1cc(C)ccn1`, the results for the GI50 with PC-3 and in the assay with T47D were > 100 µM (inactive) and 58.9 µM (inactive), respectively.

Consider `O=C(OCc1ccccc1)c1ccccc1-c1c2ccc(=O)cc-2oc2cc(OCc3ccccc3)ccc12`, for which the GI50 is 15.7 µM (inactive) in the assay on XF498, 22.6 µM (inactive) in the assay on SNB-78, 4.88 µM (inactive) with LXFL 529 and 20.3 µM (inactive) in the assay with M19-MEL.

As for `CCOc1ccc2nc3cc(/N=N/c4ccc(N)nc4N)ccc3c(N)c2c1`, the GI50 is 3.57 µM (inactive) in the assay on PC-3 and 1.67 µM (inactive) with T47D.

Take `Cn1c(=O)c2c(nc(C[N+]3([O-])CCOCC3)n2C)n(C)c1=O`: the GI50 with DMS-114 is 0.45 µM (active); in the assay on XF498, > 100 µM (inactive); in the assay with LXFL 529, > 100 µM (inactive); in the assay with M19-MEL, > 100 µM (inactive).

Consider `CC1=NC(=N)N=C(C)C1/N=N/c1ccc2[nH]c(C)nc2c1` (configuration not stated), for which the GI50 in the assay with PC-3 and in the assay with T47D was > 100 µM (inactive) throughout.

For `CC(=O)NC(Cc1ccc(OP(=O)(OCc2ccc([N+](=O)[O-])o2)N(C)CCCCCl)cc1)C(=O)NC(C)c1ccc(OCC2CCCCC2)c(C(N)=O)c1` (configuration not stated), the GI50 was 2.79 µM (inactive) in the assay with PC-3 and 2.76 µM (inactive) in the assay on T47D.

In the case of `Oc1nnc2c(-c3ccccc3)n[nH]c2n1`, the GI50 in the assay with DMS-114, in the assay on SNB-78 and in the assay with LXFL 529 was > 100 µM (inactive) throughout.

As to `COC(=O)C(=O)C(C(=O)C(=O)Nc1cccc(OC)c1)c1nc2ccc(Cl)cc2nc1O` (configuration not stated), the GI50 in the assay with PC-3 and with T47D was > 100 µM (inactive) throughout.

As for `CC(C)C1=CCC2C(=C1)CCC1C(C)(C(=O)O)CCCC21C` (configuration not stated), the GI50 in the assay on PC-3 and with T47D was > 100 µM (inactive) each time.

Take `COC(=O)[C@@H]1CC(C(C[N+](=O)[O-])c2ccc(O[Si](C)(C)C(C)(C)C)cc2)C(=O)N1C(=O)OC(C)(C)C` (some centres not stated): in the assay on T47D, the GI50 is 22.1 µM (inactive) and 32.5 µM (inactive).

Turning to `O=[N+]([O-])c1cnc(N(CCO)CCO)s1`, the GI50 in the assay with PC-3 and in the assay on T47D was > 100 µM (inactive) throughout.

For the molecule `NCCN1CCCCCc2ccccc21`, the GI50 with PC-3 and in the assay on T47D was > 10 µM (inactive) throughout.

As to `COc1ccc(C(=O)/C=C/c2ccc(OCCSCCCCCCCCCCSCCOc3ccc(/C=C/C(=O)c4ccc(OC)c(OC)c4)cc3)cc2)cc1OC`, the GI50 in the assay with PC-3 and in the assay with T47D was > 100 µM (inactive) in each case.

For the molecule `COc1ccc(/C=C2\N/C(=N/N)N=C2Cl)cc1`, the GI50 in the assay with PC-3 and in the assay on T47D was > 100 µM (inactive) each time.

`Oc1cccc(C2SCc3nc4ccccc4n32)c1` (configuration not stated): the GI50 was 31 µM (inactive) with DMS-114, 0.42 µM (active) in the assay with HOP-18, > 100 µM (inactive) in the assay with SNB-78 and 40.6 µM (inactive) in the assay with LXFL 529.

With `CC(C)=CCC/C(C)=C/Cc1c2c(c3oc(-c4ccc(O)c(O)c4)c(O)c(=O)c3c1O)C=CC(C)(C)O2`, the GI50 is 5.16 µM (inactive) in the assay on PC-3 and 1.65 µM (inactive) in the assay with T47D.

For the molecule `O=C(CCC(=O)Nc1cccc(Cl)c1)CC(=O)c1ccc(F)cc1`, the GI50 in the assay on XF498 and in the assay on SNB-78 was > 100 µM (inactive) throughout.

Turning to `C#CCOC(=O)C(N)CS` (configuration not stated), the GI50 in the assay on PC-3 and in the assay on T47D was > 100 µM (inactive) in each case.

With `O=[N+]([O-])C(=C(NCc1ccccc1)NCc1ccccc1)C(Cl)=C(Cl)Cl`, the GI50 in the assay on PC-3 was 32.1 µM (inactive); in the assay on T47D, 27.3 µM (inactive).

Consider `CC(=O)O[C@]12CCCCCC1C1(O)C(O)CCCCC12` (some centres not stated), for which the GI50 with DMS-114, in the assay on XF498, with SNB-78, in the assay with LXFL 529 and with M19-MEL was > 100 µM (inactive) each time.

Turning to `CCCCCCCCCCCCCCCCOCC(Cl)CP(=O)(O)OP(=O)(O)OCC1OC(n2cnc3c(N)ncnc32)C(O)C1O` (configuration not stated), the GI50 with PC-3 and with T47D was > 100 µM (inactive) in each case.

As for `COc1ccc(CC(C#N)c2cc(OC)c(OC)c(OC)c2)cc1` (configuration not stated), the GI50 with PC-3 was 0.014 µM (active); in the assay on DMS-114 it was 0.0418 µM (active); in the assay on XF498, 0.356 µM (active); with SNB-78, 0.227 µM (active); in the assay with LXFL 529, 0.171 µM (active); with M19-MEL it was 0.0676 µM (active).

For `CN(C)Cc1cc(C(=O)/C=C/c2ccc(Cl)cc2Cl)cc(CN(C)C)c1O`, the figures for the GI50 in the assay with PC-3 and in the assay with T47D were 1.65 µM (inactive) and 5.01 µM (inactive), respectively.

As to `C[C@@H]1C[C@H](O)[C@]2(O)O[C@@H]3C[C@@]4(C=O)[C@@H](CC[C@@H]5[C@@H]4CC[C@]4(C)[C@@H](C6=CC(=O)OC6)CC[C@]54O)C[C@H]3O[C@@H]2O1` [CALOTROPIN], the GI50 with PC-3 is 0.0234 µM (active); with T47D, 0.0303 µM (active).
